Source: patent EP0534995B1, “INCLUSION COMPOUNDS OF NIMESULIDE WITH CYCLODEXTRINS” (BOEHRINGER INGELHEIM ITALIA S.p.A., priority 1990, dated 1991)

Experiments:
[1] = dog, oral, equivalent to 10 mg/kg nimesulide; mean of 4 dogs; computer fitting (TOP FIT) of plasma levels
Procedure: (§1) Plasma kinetics were carried out in dog after oral administration of equivalent dosages of nimesulide and inclusion compound nimesulide -β-cyclodextrin according to a crossover scheme. Four male Beagle of body weight between 12.8 and 13.9 kg, fasted for at least 17 hours, were orally administered the following preparations: • A) nimesulide at the dose of 10 mg/kg • B) inclusion compound nimesulide -β-cyclodextrin (molar ratio 1 : 1) at the dose of 46.84 mg/Kg, corresponding to 10 mg/kg of nimesulide.
(§2) The preparations were administered in gelatine capsule after a "wash-out" period of 10 days.
(§3) The blood samples from dogs were collected in heparinized tubes after 1, 2, 3, 4, 5, 6, 8, 24, 28, 32, 48 and 52 hours from the administration of the two preparations. The relative plasma samples were obtained by centrifugation for 15 minutes at 3000 rpm.
(§4) The plasma levels of nimesulide were determined by HPLC with UV detection according to the following procedure: aliquots of plasma up to 2.5 ml were adjusted to 3.5 ml with distilled water and acidified with 1.0 ml of N hydrochloric acid and poured on to a glass column (18 mm i.d. 220 mm of lenght) containing 15 ml of Extralat® Merck. After 15 minutes nimesulide was eluted with two aliquotes of 7.5 ml of dichloromethane containing 5% of methanol. The eluate was evaporated to dryness under reduced pressure and the residue was taken up with 200 µl of 2.5 µg/ml solution of butilhydroxyanisole as internal standard. A suitable amount was therefore injected into a column by using the following chromatographic conditions: • Column RPC₈, 5 µm, 250 x 3 mm i.d. Supelco; • Mobile phase : acetonitrile + water containing 80 mg/l of EDTA in the ratio V/V 37.5 and 62.5 respectively; • Flow rate : 1.0 ml/min. • λ of detection: 230 nm
(§5) The parameters of AUC. Cmax and Tmax were calculated by the plasma levels of nimesulide using a computer fitting system with TOP FIT package and the results were statistically evaluated by the ANOVA TWO WAYS procedure.

in vivo = conditions: male, Beagle, dog, plasma, po, 10 mg/kg
Procedure: as §1, §2, §3, §4, §5

CS(=O)(=O)Nc1ccc([N+](=O)[O-])cc1Oc1ccccc1 [Preparation A, 4-nitro-2-phenoxy-methansulfonanilide]
TCmax [1]: 4.4 h
AUC(0-t) (in vivo): 165 µg·h/mL
Cmax (in vivo): 12100 ng/mL
